Laboratory results from patent publication US10555930B2, “Complex of a glucopyranosyl derivative and preparation method and use thereof” (SUNSHINE LAKE PHARMA CO., LTD., priority 2015, dated 2020).

Experiment: Measurement of stability (high-temperature, high-humidity and photostability tests; HPLC impurity content)
Assay type: physicochemical
Settings: for total impurity / purity: 210 nm
Protocol: An appropriate amount of the Complex (IA) sample (prepared from example 2) was weighed and tiled on a clean culture dish at a thickness of ≤5 mm, and analyzed under the following conditions:
The test sample was placed under a high temperature condition (60±2° C.) for 10 d, the relative indexes were measured at the fifth and tenth days. […] If no significant change, the test at 40° C. was not necessary.
The test sample was placed under a 25° C. and RH 90%±5% condition for 10 d, and the sample were measured at the fifth and tenth days. Test items should include a moisture-absorption weight gain. If weighting percentage of moisture absorption was more than 5%, the test should be carried out under a 25° C. and RH 75%±5% condition using the same method; If weighting percentage of moisture absorption was less than 5%, and other inspection items met the requirements, the test was not necessary. The constant humidity condition can be realized by adopting constant temperature humidity chamber or placing a saturated saline solution under a closed container. […]
The test sample was placed in light box or other suitable light vessel under a 4500 Lx±500 Lx of illuminance condition for 10 d, and the sample were measured at the fifth and tenth days.
The impurity content of the sample was calculated by the normalization method of peak area using an HPLC chromatographic instrument under the above condition, the analytic conditions were shown below:
The detection was performed on Agilent 1200DAD high pressure liquid chromatography spectrometer (Zorbax Eclipse Plus C18 150×4.6 mm chromatographic column).
The test condition of HPLC: the run time was 30 minutes (min); the column temperature was 35° C.; the detection was carried out at the wavelength of 210 nm and 225 nm;
Mobile phase: phase C: acetonitrile phase D: ultrapure water flow rate: 1.0 mL/min.
Gradient elution, the ratio of mobile phase was shown as table B.

[1] = high humidity (25° C., RH 90%±5%), 5 d, HPLC
[2] = high humidity (25° C., RH 90%±5%), 10 d, HPLC
[3] = high-temperature (60±2° C.), 5 d, HPLC
[4] = high-temperature (60±2° C.), 10 d, HPLC
[5] = illumination (4500 Lx±500 Lx), 5 d, HPLC
[6] = illumination (4500 Lx±500 Lx), 10 d, HPLC

- total impurity (0 d, HPLC peak area normalization): 0.25%
- purity (0 d, HPLC): 99.75%
- appearance (high humidity (25° C., RH 90%±5%), 5 d): white bulk
- purity [1]: 99.70%
- total impurity [1]: 0.30%
- appearance (high humidity (25° C., RH 90%±5%), 10 d): white bulk
- purity [2]: 99.78%
- total impurity [2]: 0.22%
- purity [3]: 95.03%
- total impurity [3]: 4.97%
- purity [4]: 92.16%
- total impurity [4]: 7.84%
- stability (summary in words) (high-temperature, high humidity or illumination for 10 d, listed as compound (I-n) in amorphism form): poor stability
- purity [5]: 99.69%
- total impurity [5]: 0.31%
- purity [6]: 99.72%
- total impurity [6]: 0.28%
SMILES: CCOc1ccc(Cc2cc([C@]34OC[C@]([C@@H](C)O)(O3)[C@@H](O)[C@H](O)[C@H]4O)ccc2Cl)cc1 [compound (I-n) amorphism, (1R,2S,3S,4R,5S)-5-(4-chloro-3-(4-ethoxybenzyl)phenyl)-1-((1R)-1-hydroxyethyl)-6,8-dioxabicyclo[3.2.1]octane-2,3,4-triol]
